According to patent US20210369677A1, “SMALL MOLECULE ACTIVATORS OF POLYCYSTIN-2 (PKD2) AND USES THEREOF” (Northwestern University, priority 2020, published 2021):

How the values were obtained:
[1] = target: T1, human polycystin-2 CTD EF hand (I704-P797) (Homo sapiens, UniProt Q13563); settings: Yang et al., 2015; read-out: Kd previously reported for this peptide; cited from earlier work
T1 construct: The C-terminal fragment of the human polycystin-2 (I704-P797) was cloned into the PET19b vector; 10xHis (N); made in house; host or cells: E. coli BL21 (DE3)
T1 sequence (Q13563 704-797): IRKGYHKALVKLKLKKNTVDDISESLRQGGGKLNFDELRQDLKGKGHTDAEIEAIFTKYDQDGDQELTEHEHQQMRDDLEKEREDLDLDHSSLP

[2] = target: T2, human PKD2 channel proteins (WT or C331S) (Homo sapiens, UniProt Q13563); test: Thermal stability assay (FSEC) of purified PKD2 channel proteins; settings: 10 mM GSH
T2 construct: purified the C331S variant of polycystin-2 (residues 53-792) protein in amphipols; made in house
Method: Thermal stability assay. Approximately 9 μg of purified human PKD2 channel proteins (WT or C331S) in 30 μl buffer composed of 20 mM HEPES 150 mM NaCl, 2 mM CaCl2), 0.5 mM TCEP and 0.5 mM DDM (n-Dodecyl β-D-maltoside), at pH 7.4, were incubated at 4° C.-90° C. (4° C., room temperature, 30° C., 35.2° C., 39.3° C., 44.9° C., 49° C., 54° C., 60° C., 65.5° C., 69.4° C., 75° C., 79.3° C., 84° C., and 90° C.) for 10 minutes in a thermal cycler. To reduce the C331-C344 disulfide bond in the PKD2 channel, 10 mM GSH was added to all the buffers during purification and thermal stability assay. The treated channel samples were then diluted 10 times with the same buffer followed by centrifugation for 30 min at 40,000 rpm. 30 μl of each cleared channel samples were separated on an analytical size exclusion column (Superose™ 6 5/150 GL, GE Healthcare) at 0.3 ml/min flow rate. Proteins were detected by Tryptophan fluorescence. The FSEC-based thermostability experiments were performed in triplicates for each temperature point. The integrated area of the channel tetramer peak at different temperature points is normalized to that at 4° C. to generate the thermal stability plot.
We tested the thermal stability of PKD2 and the C331S variant in the presence or absence of NS1643. (See FIG. 33). We also performed Rosetta modeling. (See FIG. 35).

T2 sequence (Q13563 53-792 C331S): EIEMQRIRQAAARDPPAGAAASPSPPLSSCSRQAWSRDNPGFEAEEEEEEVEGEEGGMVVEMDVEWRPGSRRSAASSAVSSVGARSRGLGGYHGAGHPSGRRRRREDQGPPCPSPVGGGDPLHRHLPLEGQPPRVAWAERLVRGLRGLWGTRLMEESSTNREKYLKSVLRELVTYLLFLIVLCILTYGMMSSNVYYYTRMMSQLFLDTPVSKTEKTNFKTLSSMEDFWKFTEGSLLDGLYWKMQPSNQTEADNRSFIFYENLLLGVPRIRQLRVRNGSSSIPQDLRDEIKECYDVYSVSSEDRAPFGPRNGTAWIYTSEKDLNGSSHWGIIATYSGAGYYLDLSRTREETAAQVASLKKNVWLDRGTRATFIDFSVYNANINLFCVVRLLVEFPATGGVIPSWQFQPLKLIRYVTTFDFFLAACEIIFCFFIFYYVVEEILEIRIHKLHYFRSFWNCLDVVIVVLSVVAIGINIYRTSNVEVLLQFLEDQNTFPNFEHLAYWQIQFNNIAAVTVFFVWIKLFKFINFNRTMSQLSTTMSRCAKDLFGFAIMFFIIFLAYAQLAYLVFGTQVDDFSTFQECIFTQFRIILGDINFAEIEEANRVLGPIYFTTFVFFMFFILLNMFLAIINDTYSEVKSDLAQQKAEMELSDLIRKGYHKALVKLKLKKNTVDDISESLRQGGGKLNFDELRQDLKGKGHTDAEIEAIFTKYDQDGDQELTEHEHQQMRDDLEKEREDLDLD

| SMILES | Kd [1] [µM] | Thermal denaturation of polycystin-2 channel protein under reducing conditions [2] |
| --- | --- | --- |
| [Ca+2] [Ca^2+, calcium] | 22 | – |
| N[C@@H](CCC(=O)N[C@@H](CS)C(=O)NCC(=O)O)C(=O)O [GSH, reduced glutathione] | – | denaturing at lower temperatures |
